This is an account of results in patent US5679675A, “8-amino-10-(azabicycloalkyl)-pyrido[1,2,3-d,e][1,3,4]benzoxadiazine derivatives” (Bayer Aktiengesellschaft, priority 1994, dated 1997).

Common to all, as to experiment: MIC, serial dilution method on Iso-Sensitest agar
Common to all, as to type: cell-based

For one test, the system named is Micrococcus luteus. As to conditions: strain 9341, 37° C., about 20 hours. How it is done:
(§1) The minimum inhibitory concentrations (MIC) of the compounds according to the invention were determined by serial dilution methods on Iso-Sensitest agar (Oxoid). For each test substance, a series of agar plates was prepared which contained decreasing concentrations of the active compound at, in each case, double dilution. The agar plates were inoculated with a multipoint inoculator (Denley). For inoculation, overnight cultures of the pathogens were reed which had previously been diluted such that each inoculation point contained about 10^4 colony-forming particles. The inoculated agar plates were incubated at 37° C., and the growth of microorganism was read off after about 20 hours. The MIC value (μg/ml) indicates the lowest active compound concentration at which no growth was to be detected with the naked eye.

A further test has as its system Enterococcus faecalis. To be noted: 20 h, about 20 hours. How it is done:
as §1

The test system of a further test is Providencia sp. To be noted: 20 h, about 20 hours. Here is the method:
as §1

In another test the test system is Klebsiella pneumoniae. To be noted: 37° C., about 20 hours. How it is done:
as §1

The subject of another test is Staphylococcus aureus. To be noted: about 20 hours. Here is the method: as §1
The test system of another test is E. coli. As to conditions: Escherichia coli, 37° C., about 20 hours. How it is done: as §1
The test system of another test is Acinetobacter. To be noted: strain 14068, 37° C., about 20 hours. How it is done:
as §1

Setting [1] is: Klebsiella pneumoniae, strain 8085, read-out: MIC.
The mark [2] stands for this setting: ATCC29213, 20 h, strain ATCC 29213, 37° C.

Each structure is given as a SMILES string. Converted amounts (≈) assume the structure as drawn. Read-outs that look alike come from different tables or passages of the source. Bounds are passed on as bounds.

Regarding `CC1C=CC(N)C2CN(c3c(F)c(N)c4c(=O)c(C(=O)O)cn5c4c3OCN5C)CC12` (centres unmarked) [Example 7, 8-Amino-10-(2-amino-5-methyl-8-azabicyclo[4.3.0]non-3-en-8-yl)-9-fluoro-3-methyl-7-oxo-2,3-dihydro-7-H-pyrido[1,2,3-d,e][1,3,4]benzoxadiazine-6-carboxylic acid], the MIC – broadly, the lowest concentration found to suppress growth – in the test with Micrococcus luteus is ≤ 0.015 µg/mL; in the test with Enterococcus faecalis (strain 9790, 37° C.), 0.03 µg/mL (≈ 0.0699 µM); in the test with Enterococcus faecalis (strain 27101, 37° C.), ≤ 0.015 µg/mL; against Providencia sp. (strain 12012, 37° C.), 0.03 µg/mL (≈ 0.0699 µM); in the test with Providencia sp. (strain 12052, 37° C.), 2 µg/mL (≈ 4.66 µM); in the test on Klebsiella pneumoniae (setting [1]), 0.03 µg/mL (≈ 0.0699 µM). In addition, the MIC in the test on Klebsiella pneumoniae (strain 63) is 0.03 µg/mL (≈ 0.0699 µM); in the test with Staphylococcus aureus (20 h, strain 133, 37° C.) it was ≤ 0.015 µg/mL; against Staphylococcus aureus (20 h, strain ICB 25701, 37° C.), 0.25 µg/mL (≈ 0.582 µM); in the test with Staphylococcus aureus (20 h, strain ICB 25768, 37° C.), 0.5 µg/mL (≈ 1.16 µM); in the test on Staphylococcus aureus (setting [2]), ≤ 0.015 µg/mL; against E. coli (ATCC25922, strain ATCC 25922) it was ≤ 0.015 µg/mL. Besides, the MIC in the test with E. coli (strain Neumann) and against Acinetobacter was ≤ 0.015 µg/mL in each case.
As to `CNC1C=CCC2CN(c3c(F)c(N)c4c(=O)c(C(=O)O)cn5c4c3OCN5C)CC21` (centres unmarked) [Example 4, 8-Amino-9-fluoro-3-methyl-10-(2-methylamino-8-azabicyclo[4.3.0]non-3-en-8-yl)-7-oxo-2,3-dihydro-7H-pyrido[1,2,3-d,e][1,3,4]benzoxadiazine-6-carboxylicacid], the minimum inhibitory concentration (MIC) was ≤ 0.015 µg/mL with Micrococcus luteus; 0.06 µg/mL (≈ 0.14 µM) in the test with Enterococcus faecalis (strain 9790, 37° C.); 0.06 µg/mL (≈ 0.14 µM) with Enterococcus faecalis (strain 27101, 37° C.); 0.06 µg/mL (≈ 0.14 µM) against Providencia sp. (strain 12012, 37° C.); 4 µg/mL (≈ 9.31 µM) against Providencia sp. (strain 12052, 37° C.); 0.06 µg/mL (≈ 0.14 µM) in the test on Klebsiella pneumoniae (setting [1]). In addition, the MIC was 0.06 µg/mL (≈ 0.14 µM) in the test on Klebsiella pneumoniae (strain 63); ≤ 0.015 µg/mL against Staphylococcus aureus (20 h, strain 133, 37° C.); 0.5 µg/mL (≈ 1.16 µM) in the test with Staphylococcus aureus (20 h, strain ICB 25701, 37° C.); 1 µg/mL (≈ 2.33 µM) against Staphylococcus aureus (20 h, strain ICB 25768, 37° C.); ≤ 0.015 µg/mL in the test on Staphylococcus aureus (setting [2]); 0.03 µg/mL (≈ 0.0699 µM) against E. coli (ATCC25922, strain ATCC 25922). Also, the values for the minimum inhibitory concentration (MIC) against E. coli (strain Neumann) and with Acinetobacter were 0.03 µg/mL (≈ 0.0699 µM) and ≤ 0.015 µg/mL, respectively.
For the compound `CN1COc2c(N3CC4CC=CC(N)C4C3)c(F)c(N)c3c(=O)c(C(=O)O)cn1c23` (centres unmarked) [Example 5, 8-Amino-10-(2-amino-8-azabicyclo[4.3.0]non-3-en-8-yl)-9-fluoro-3-methyl-7-oxo-2,3-dihydro-7H-pyrido[1,2,3-d,e][1,3,4]benzoxadiazine-6-carboxylic acid], the MIC was ≤ 0.015 µg/mL with Micrococcus luteus; 0.03 µg/mL (≈ 0.0722 µM) with Enterococcus faecalis (strain 9790, 37° C.); 0.03 µg/mL (≈ 0.0722 µM) against Enterococcus faecalis (strain 27101, 37° C.); ≤ 0.015 µg/mL with Providencia sp. (strain 12012, 37° C.); 2 µg/mL (≈ 4.81 µM) against Providencia sp. (strain 12052, 37° C.); 0.03 µg/mL (≈ 0.0722 µM) with Klebsiella pneumoniae (setting [1]). The MIC with Klebsiella pneumoniae (strain 63) was 0.03 µg/mL (≈ 0.0722 µM); against Staphylococcus aureus (20 h, strain 133, 37° C.), ≤ 0.015 µg/mL; in the test with Staphylococcus aureus (20 h, strain ICB 25701, 37° C.) it was 0.125 µg/mL (≈ 0.301 µM); against Staphylococcus aureus (20 h, strain ICB 25768, 37° C.), 0.25 µg/mL (≈ 0.602 µM); with Staphylococcus aureus (setting [2]) it was ≤ 0.015 µg/mL; in the test with E. coli (ATCC25922, strain ATCC 25922), ≤ 0.015 µg/mL. Besides, the MIC in the test with E. coli (strain Neumann) and against Acinetobacter was ≤ 0.015 µg/mL in each case.
With `CN1COc2c(N3C[C@H]4[C@H](N)CC=C[C@H]4C3)c(F)c(N)c3c(=O)c(C(=O)O)cn1c23` (relative stereo) [Example 11, 8-Amino-10-((1SR,2RS,6RS)-2-amino-8-azabicyclo[4.3.0]non-4-en-8-yl)-9-fluoro-3-methyl-7-oxo-2,3-dihydro-7H-pyrido[1,2,3-d,e][1,3,4]benzoxadiazine-6-carboxylic acid], the minimum inhibitory concentration (MIC) against Micrococcus luteus is 0.5 µg/mL (≈ 1.2 µM); in the test with Enterococcus faecalis (strain 9790, 37° C.), ≤ 0.015 µg/mL; against Enterococcus faecalis (strain 27101, 37° C.), ≤ 0.015 µg/mL; against Providencia sp. (strain 12012, 37° C.), ≤ 0.015 µg/mL; in the test on Providencia sp. (strain 12052, 37° C.) it was 16 µg/mL (≈ 38.5 µM); in the test on Klebsiella pneumoniae (setting [1]), ≤ 0.015 µg/mL. The MIC in the test with Klebsiella pneumoniae (strain 63) was ≤ 0.015 µg/mL; in the test on Staphylococcus aureus (20 h, strain 133, 37° C.) it was ≤ 0.015 µg/mL; against Staphylococcus aureus (20 h, strain ICB 25701, 37° C.), 0.5 µg/mL (≈ 1.2 µM); in the test with Staphylococcus aureus (20 h, strain ICB 25768, 37° C.), 16 µg/mL (≈ 38.5 µM); in the test on Staphylococcus aureus (setting [2]) it was ≤ 0.015 µg/mL; in the test on E. coli (ATCC25922, strain ATCC 25922) it was ≤ 0.015 µg/mL. The MIC against E. coli (strain Neumann) and in the test with Acinetobacter was ≤ 0.015 µg/mL each time.
